B1: IFNγ: cytokine that activates inflammatory M1-type macrophages (protein, UniProt P01579 24-161, looked up)
Interferon gamma: QDPYVKEAENLKKYFNAGHSDVADNGTLFLGILKNWKEESDRKIMQSQIVSFYFKLFKNFKDDQSIQKSVETIKEDMNVKFFNSNKKKRDDFEKLTNYSVTDLNVQRKAIHELIQVMAELSPAAKTGKRKRSQMLFRG

Columns and labels:
4T1 breast tumor model [1] = test: Efficacy of AS1517499-loaded liposomes on tumor growth in the 4T1 breast tumor model; format: in vivo, mice; conditions: 8 mg/kg, intravenous route, twice weekly
Experimental: (§1) For efficacy analysis of AS1517499-loaded liposomes, 1×10^5 Luc-cells were injected into the mammary fat pad, and tumors were allowed to develop to a size of 100 mm^3. Thereupon, treatment with AS1517499-loaded liposomes (8 mg/kg, intravenous administrations, twice a week) was started. Before sacrifice, mice were injected with 2.5 mg of D-Luciferin (Perkin-Elmer, Waltham, MA) and were imaged after 15 minutes to detect bioluminescence signal using a Pearl Trilogy imager (LICOR).
Mouse 4T1-Luc cells were injected orthotopic into the mammary fat pad of BalbC mice. The mice were randomly assigned into five groups: a) treated with PBS as the vehicle group, b) treated with free AS, c) treated with AS-HSPC liposomes, d) treated with AS-PAzPC liposomes, e) treated with empty PAzPC liposomes. […] Since the loading of the AS1517499 was little in the liposomes, 8 mg/kg was injected, intravenous route, twice weekly.

4T1 breast tumor model [2] = test: Effect of AS-loaded liposomes on pre-metastatic niche in liver and lungs (qPCR); format: in vivo, mice; conditions: compared to the vehicle group
Experimental: as §1
TAMs display a number of pro-tumoral functions, including extracellular matrix remodeling, neoangiogenesis, suppression of adaptive immunity and facilitate tumor metastasis (Allavena et al. 2012 Exp. Immunol. 167, 195-205, doi:10.1111/j.1365-2249.2011.04515.x). […] As most of cancer related mortalities occur due to metastasis, the effect of AS-loaded liposomes on the pre-metastatic niche in the organs (liver and lungs) of the 4T1 breast tumor was examined using qPCR analysis (FIG. 9).

[3] = test system: 4T1 orthotopic tumor model; conditions: free AS1517499, 20 mg/kg; i.p route; cited from earlier work
RAW 264.7 macrophages = test: Effect of MTP-PE on differentiated RAW 264.7 macrophages (qPCR); format: cell-based, murine
Experimental: (§2) Macrophages were differentiated as reported in [7]. Briefly, THP-1 cells were treated for 24 hours with 100 ng/ml of phorbol 12-myristate 13-acetate (PMA, Cayman Chemicals) to allow their attachment. The medium was replaced by medium containing 20 ng/ml IL-4 and IL-13 (Peprotech, London, UK) for M2 differentiation, or 20 ng/ml IFNγ (Peprotech) and 100 ng/ml LPS (Sigma Aldrich) for M1 differentiation. Cells were incubated with cytokines for 24 hours (gene expression on differentiation), and 72 hours (liposome uptake experiments). BMDMs were plated overnight with a density of 50,000 cells/ml. After 24 hours, medium was aspirated. Cells were incubated for 24 hours in complete RPMI medium containing IL-4 and IL-13 at 10 ng/ml (M2 differentiation) or LPS and IFN-γ at 100 and 10 ng/ml. In case of RAW264.7 cells, M1 macrophages were differentiated using 10 ng-mL murine recombinant IFNγ and 10 ng-mL LPS. M2 macrophages were differentiated using 10 ng-mL murine IL-4 and IL-13.
(§3) 0.5×10^6 RAW264.7/THP-1 cells were plated in 12-well plates, if applicable treated with respective cytokines for differentiation, and activated using PMA. Cells were then incubated with different liposomal preparations (50 μM) or differentiation cytokines for 24 hours. BMDM were differentiated as described above. After differentiation, cells were washed with PBS and then lysed using lysis buffer and total RNA was isolated using SV Total RNA Isolation System (Promega, Madison, WI). cDNA was prepared by using iScript cDNA synthesis kit (Bio-Rad, Hercules, CA) and qRT-PCR was performed with 10 ng of cDNA per reaction mixture using SYBR green assay (Bioline, London, UK). Reactions were measured using the CFX384 Real-Time PCR detection system (Bio-Rad). The threshold cycles (Ct) values were calculated and relative gene expression (ddCt method) was analyzed after normalization using the Rsp18 (THP-1) or Gapdh (RAW264.7/BMDM) house-keeping gene.
To study the effect of MTP-PE, murine macrophages RAW 264.7 were first differentiated with IFNγ and LPS for M1 and with IL-4 and IL-13 for M2 macrophages (TAM). […]

THP-1 macrophages [4] = test: Effect of MTP-PE and IFNγ on differentiated THP-1 macrophages (qPCR); format: cell-based, human; conditions: for DC-SIGN (M2 marker) expression in TAMs: second experiment, with or without IFNγ
Experimental: as §2, §3
Next, the effect of MTP-PE on differentiated human macrophages THP-1 was investigated.
(§4) (IL-1β and TNFα) in TAMs, which indicates the switch of M2 macrophages toward M1 phenotype (FIG. 12A). In the second experiment, IFNγ, a well-known inducer of M1 macrophage differentiation, was tested (Sica et al. 2012 J. Clin. Invest. 122, 787-795, doi:10.1172/JCI59643), and MTP-PE to understand the role of IFNγ potentiation effect on macrophage reprogramming.

THP-1 macrophages [5] = test: Cell growth after 24-hour treatment of MTP-PE and IFNγ; format: cell-based, human; conditions: IFNγ 20 ng/ml
Experimental: FIG. 12. In vitro effects of MTP-PE and IFNγ in differentiated THP-1 macrophages. qPCR analysis of macrophage differentiation with MTP-PE with or without IFNγ for M1 markers IL-1β, IL-6, TNFα and M2 markers for DC-SIGN. […] B) The cell growth was evaluated after 24-hour treatment of MTP-PE and IFNγ C) MTP-PE, in synergy with IFNγ activates tumoricidal properties by inducing more M1 markers. Bars represent mean+SEM, n=3 *p<0.05, **p<0.005, ***p<0.001.
as §4

[6] = increasing concentrations of MTP-PE

Row | Molecule | Tumor volume/weight compared to the vehicle group (4T1 breast tumor model [1]) | CD31, collagen I, periostin, fibronectin expression in liver samples (4T1 breast tumor model [2]) | Premetastatic niche in liver [3] | Tumor volume compared to the vehicle group [3] | Cytokines (IL-1β, IL-6, TNFα) expression in M1 differentiation (RAW 264.7 macrophages; MTP-PE dose-dependent conc., in presence of IFNγ) | M2 macrophage markers (MRC-1, ARG-1) in M2 macrophages (RAW 264.7 macrophages; [6]) | TNFα expression in M2-type macrophages (RAW 264.7 macrophages; [6]) | DC-SIGN gene expression (M2 differentiation) (THP-1 macrophages [4]; 1 and 10 ug/ml, first experiment) | M1 type differentiation markers in presence of M1 cytokines (THP-1 macrophages [4]; data not shown) | M1 cytokine markers (IL-1β and TNFα) in TAMs (THP-1 macrophages [4]; first experiment) | DC-SIGN (M2 marker) expression in TAMs (THP-1 macrophages [4]) | Cell growth (THP-1 macrophages [5])
1 | NC(=O)c1cnc(NCCc2ccc(O)c(Cl)c2)nc1NCc1ccccc1 [AS1517499] | no difference in tumor volume/weight | no statistically significant difference | reduced premetastatic niche in liver | inhibited tumor volume significantly | – | – | – | – | – | – | – | –
2 | muramyl tripeptide-phosphatidyl ethanolamine [MTP-PE] | – | – | – | – | increasing the cytokines (IL-1β, IL-6, TNFα) expression | did not show any inhibition | increased TNFα expression | reduced expression of DC-SIGN gene | increased the M1 type differentiation markers | induced M1 cytokine markers | reduced the expression of DC-SIGN | no direct effect on the cell growth
3 | B1 | – | – | – | – | – | – | – | – | – | – | increased expression of DC-SIGN | reduced the cell growth significantly

Reference: patent publication US12156938B2, “Liposomes for targeting tumor-associated macrophages” (Universiteit Twente, priority 2018, dated 2024)
